Assay results published in US9617216B2, “Antifungal oxodihydropyridinecarbohydrazide derivative” (Daewoong Pharmaceutical Co., Ltd., priority 2013, dated 2017).
In brackets after ≈: the same amount, converted by molar mass.

Each compound was assayed on Candida albicans (assay: In vitro antifungal activity test (MIC), Candida albicans). Conditions: Candida albicans; concentration at which growth is inhibited by 80% vs negative control; 35° C., 24 hours, RPMI 1640, alama blue.
Type: cell-based
Method: The antifungal activities of the compounds of the present invention were evaluated using Candida albicans as yeast fungus, and Aspergillus fumigatus as a filamentous fungus. The above fungi used were all purchased from American Type Culture Collection (ATCC). The strains used in the experiment were inoculated into a Sabouraud dextrose agar medium, and then cultured at 35° C. for a sufficient period of time, e.g., 24 hours for Candida albicans, and about 7 days for Aspergillus fumigatus. As for Candida albicans, about 5 to 7 single colonies were taken from the cultured medium, sufficiently suspended in 1 ml of 0.85% sterile saline solution, and adjusted to have an optical density of 0.095 to 0.107 at 530 nm. A preparation of a strain diluent was diluted in Roswell park memorial institute (RPMI) 1640 medium at a 1:10 ratio, and the resultant was diluted again at a 1:100 ratio to obtain an inoculation preparation for Candida albicans with a concentration of 1.0×10^3 to 5.0×10^3 CFU/mL. As for Aspergillus fumigatus, the cultured Sabouraud dextrose agar was added with 1 mL of 0.2% Tween 20 diluted with 0.85% sterile saline solution, and then the plate was shaken to detach conidium from the plate. The solution collected from the plate surface was transferred into a sterile tube, and placed at room temperature for 5 minutes to deposit heavy substances. The resulting supernatant was transferred into the sterile tube, sufficiently suspended for about 15 seconds, and prepared a strain diluent with a concentration of 0.4×10^6 to 5.0×10^6 CFU/mL using a hemocytometer. The thus prepared strain diluent was diluted in RPMI 1640 medium at a 1:100 ratio to obtain an inoculation preparation for Aspergillus fumigatus. Candida albicans was cultured at 35° C. for 24 hours and Aspergillus fumigatus was cultured at 35° C. for 48 hours, and the concentrations, at which growth is inhibited by 80% or 50% compared to a negative control group, were determined using alama blue color developing reagent. All experiments were repeated twice for each concentration, and the results of antifungal activities (MIC80 MIC50 μg/mL) are shown in Tables 1 to 2.

| MIC80 [µg/mL] | Structure (SMILES) |
| --- | --- |
| 0.24 (≈ 0.771 µM) | Cn1cc(C(=O)NNc2cccc(C(F)(F)F)c2)ccc1=O [Example 8, 1-methyl-6-oxo-N′-(3-(trifluoromethyl)phenyl)-1,6-dihydropyridine-3-carbohydrazide] |
| 0.49 (≈ 1.57 µM) | Cn1cc(C(=O)NNc2ccc(Cl)cc2)cc(Cl)c1=O [Example 27, 5-chloro-N′-(4-chlorophenyl)-1-methyl-6-oxo-1,6-dihydropyridine-3-carbohydrazide] |
| 0.08 (≈ 0.207 µM) | O=C(NNc1cccc(F)c1)c1ccc(=O)n(CCc2ccc(Cl)cc2)c1 [Example 58, 1-(4-chlorophenethyl)-N′-(3-fluorophenyl)-6-oxo-1,6-dihydropyridine-3-carbohydrazide] |
| 0.06 (≈ 0.192 µM) | Cn1cc(C(=O)NNc2ccc(Cl)c(Cl)c2)ccc1=O [Example 14, N′-(3,4-dichlorophenyl)-1-methyl-6-oxo-1,6-dihydropyridine-3-carbohydrazide] |
| 0.47 (≈ 1.55 µM) | Cn1cc(C(=O)NNc2ccc(C#N)cc2)cc(Cl)c1=O [Example 29, 5-chloro-N′-(4-cyanophenyl)-1-methyl-6-oxo-1,6-dihydropyridine-3-carbohydrazide] |
| 0.13 (≈ 0.381 µM) | O=C(NNc1cccc(F)c1)c1ccc(=O)n(-c2cccc(F)c2)c1 [Example 43, N′,1-Bis(3-fluorophenyl)-6-oxo-1,6-dihydropyridine-3-carbohydrazide] |
| 0.14 (≈ 0.379 µM) | O=C(NNc1cccc(F)c1)c1ccc(=O)n(CCc2ccc(F)cc2)c1 [Example 60, 1-(4-fluorophenethyl)-N′-(3-fluorophenyl)-6-oxo-1,6-dihydropyridine-3-carbohydrazide] |
| 0.12 (≈ 0.396 µM) | Cn1cc(C(=O)NNc2cccc(C#N)c2)cc(Cl)c1=O [Example 28, 5-chloro-N′-(3-cyanophenyl)-1-methyl-6-oxo-1,6-dihydropyridine-3-carbohydrazide] |
| 1.95 (≈ 6.26 µM) | Cn1cc(C(=O)NNc2ccc(C(F)(F)F)cc2)ccc1=O [Example 9, 1-methyl-6-oxo-N′-(4-(trifluoromethyl)phenyl)-1,6-dihydropyridine-3-carbohydrazide] |
| 0.08 (≈ 0.208 µM) | O=C(NNc1cccc(F)c1)c1ccc(=O)n(CCOc2ccc(F)cc2)c1 [Example 65, 1-(2-(4-fluorophenoxy)ethyl)-N′-(3-fluorophenyl)-6-oxo-1,6-dihydropyridine-3-carbohydrazide] |
| 0.22 (≈ 0.788 µM) | Cn1cc(C(=O)NNc2ccc(F)c(F)c2)ccc1=O [Example 12, N′-(3,4-difluorophenyl)-1-methyl-6-oxo-1,6-dihydropyridine-3-carbohydrazide] |
| 0.07 (≈ 0.205 µM) | O=C(NNc1cccc(F)c1)c1ccc(=O)n(-c2ccccc2F)c1 [Example 42, 1-(2-fluorophenyl)-N′-(3-fluorophenyl)-6-oxo-1,6-dihydropyridine-3-carbohydrazide] |
| 0.84 (≈ 3.13 µM) | Cn1cc(C(=O)NNc2ccc(C#N)cc2)ccc1=O [Example 7, N′-(4-cyanophenyl)-1-methyl-6-oxo-1,6-dihydropyridine-3-carbohydrazide] |
| 0.08 (≈ 0.208 µM) | O=C(NNc1cccc(F)c1)c1ccc(=O)n(CCOc2ccccc2F)c1 [Example 61, 1-(2-(2-fluorophenoxy)ethyl)-N′-(3-fluorophenyl)-6-oxo-1,6-dihydropyridine-3-carbohydrazide] |
| 0.1 (≈ 0.383 µM) | Cn1cc(C(=O)NNc2ccc(F)cc2)ccc1=O [Example 3, N′-(4-fluorophenyl)-1-methyl-6-oxo-1,6-dihydropyridine-3-carbohydrazide] |
| 0.09 (≈ 0.206 µM) | O=C(NNc1cccc(F)c1)c1ccc(=O)n(CCOc2ccc(Cl)cc2Cl)c1 [Example 64, 1-(2-(2,4-dichlorophenoxy)ethyl)-N′-(3-fluorophenyl)-6-oxo-1,6-dihydropyridine-3-carbohydrazide] |
| 0.13 (≈ 0.381 µM) | O=C(NNc1cccc(F)c1)c1ccc(=O)n(-c2ccc(F)cc2)c1 [Example 44, N′-(3-fluorophenyl)-1-(4-fluorophenyl)-6-oxo-1,6-dihydropyridine-3-carbohydrazide] |
| 0.05 (≈ 0.18 µM) | Cn1cc(C(=O)NNc2ccc(Cl)cc2)ccc1=O [Example 5, N′-(4-chlorophenyl)-1-methyl-6-oxo-1,6-dihydropyridine-3-carbohydrazide] |

The next lines start with the compound.

| Structure (SMILES) | MIC80 [µg/mL] |
| --- | --- |
| O=C(NNc1cccc(F)c1)c1ccc(=O)n(CCc2ccccc2F)c1 [Example 59, 1-(2-fluorophenethyl)-N′-(3-fluorophenyl)-6-oxo-1,6-dihydropyridine-3-carbohydrazide] | 0.14 (≈ 0.379 µM) |
| COCCn1cc(C(=O)NNc2ccc(F)cc2)ccc1=O [Example 78, N′-(4-fluorophenyl)-1-(2-methoxyethyl)-6-oxo-1,6-dihydropyridine-3-carbohydrazide] | 0.24 (≈ 0.786 µM) |
| O=C(NNc1ccc(F)cc1)c1ccc(=O)n(CC2CCCCC2)c1 [Example 67, 1-(cyclohexylmethyl)-N′-(4-fluorophenyl)-6-oxo-1,6-dihydropyridine-3-carbohydrazide] | 0.27 (≈ 0.786 µM) |
| O=C(NNc1cccc(F)c1)c1ccc(=O)n(CCN2CCN(c3ccc(C(F)(F)F)cc3)CC2)c1 [Example 55, N′-(3-fluorophenyl)-6-oxo-1-(2-(4-(4-(trifluoromethyl)phenyl)piperazin-1-yl)ethyl)-1,6-dihydropyridine-3-carbohydrazide] | 0.2 (≈ 0.397 µM) |
| Cn1cc(C(=O)NNc2ccc(F)cc2)c(Nc2ccc(C(F)(F)F)cc2)cc1=O [Example 36, N′-(4-fluorophenyl)-1-methyl-6-oxo-4-((4-(trifluoromethyl)phenyl)amino)-1,6-dihydropyridine-3-carbohydrazide] | 1.31 (≈ 3.12 µM) |
| Cn1cc(C(=O)NNc2ccc(F)nc2F)ccc1=O [Example 19, N′-(2,6-difluoropyridine-3-yl)-1-methyl-6-oxo-1,6-dihydropyridine-3-carbohydrazide] | 0.88 (≈ 3.14 µM) |
| O=C(Cn1cc(C(=O)NNc2cccc(F)c2)ccc1=O)c1ccc(C(F)(F)F)cc1 [Example 68, N′-(3-fluorophenyl)-6-oxo-1-(2-oxo-2-(4-(trifluoromethyl)phenyl)ethyl)-1,6-dihydropyridine-3-carbohydrazide] | 0.34 (≈ 0.785 µM) |
| O=C(NNc1cccc(F)c1)c1ccc(=O)n(Cc2ccc(C(F)(F)F)nc2)c1 [Example 50, N′-(3-fluorophenyl)-6-oxo-1-((6-(trifluoromethyl)pyridine-3-yl)methyl)-1,6-dihydropyridine-3-carbohydrazide] | 0.08 (≈ 0.197 µM) |
| Cc1nc(F)ccc1NNC(=O)c1ccc(=O)n(C)c1 [Example 20, N′-(6-fluoro-2-methylpyridine-3-yl)-1-methyl-6-oxo-1,6-dihydropyridine-3-carbohydrazide] | 0.22 (≈ 0.796 µM) |
| O=C(Cn1cc(C(=O)NNc2cccc(F)c2)ccc1=O)Nc1ccc(C(F)(F)F)cc1 [Example 71, 2-(5-(2-(3-fluorophenyl)hydrazinecarbonyl)-2-oxopyridine-1(2H)-yl)-N-(4-(trifluoromethyl)phenyl)acetamide] | 0.04 (≈ 0.0892 µM) |
| O=C(NNc1ccc(F)c(F)c1)c1ccc(=O)n(Cc2ccc(C(F)(F)F)nc2)c1 [Example 52, N′-(3,4-difluorophenyl)-6-oxo-1-((6-(trifluoromethyl)pyridine-3-yl)methyl)-1,6-dihydropyridine-3-carbohydrazide] | 0.08 (≈ 0.189 µM) |
| O=C(NNc1ccc(F)cc1)c1ccc(=O)n(-c2ccc(C(F)(F)F)cc2)c1 [Example 45, N′-(4-fluorophenyl)-6-oxo-1-(4-(trifluoromethyl)phenyl)-1,6-dihydropyridine-3-carbohydrazide] | 0.61 (≈ 1.56 µM) |
